Patent publication US20240271127A1, “METHODS OF ENHANCING AND EXPEDITING EXPRESSION OF ANTIBODIES” (Aridis Pharmaceuticals, Inc., priority 2019, published 2024)

System: UPR pathway in CHO-K1 cell line expressing Ire1-1642G and Fv2E-PERK
Assay: Drug-inducible UPR pathway activation, RT-qPCR of UPR gene mRNA transcripts
Assay type: cell-based, Chinese hamster
Settings: CHO-K1 transfected with Ire1-1642G and Fv2E-PERK in combination; 1NM-PP1 0, 10 or 50 μM added 24 hours post-transfection
Protocol: In FIG. 12A drug-inducible activation of UPR pathway promotes ER expansion signaling pathways in a dosage-dependent manner. […] At 24 hours post-transfection, cells were treated with varying concentrations of 1NM-PP1 (0, 10, or 50 μM). mRNA transcripts of UPR genes were measured by RT-qPCR of unspliced Xbp1 (Xbp1u), spliced Xbp1 (Xbp1s), Chop, Gadd34, and Atf4. […]
Reverse transcription real-time quantitative polymerase chain reaction (RT-qPCR). […] Quantification was by standard ddCt method.
1NM-PP1 drug induction in CHO cells: Stable CHO cell lines expressing Ire1a 1642G or Fv2E-PERK alone or in combination were induced with 10 or 50 µM of 1NM-PP1. Gene expression measured by RT-qPCR was performed at 24h post-drug induction.
A drug inducible UPR activation pathway was constructed in a CHO-K1 cell line transfected with plasmid containing constitutive promoter expressing Ire1-1642G or Fv2E-PERK alone or in combination. At 24 hours post-transfection, cells were treated with varying concentrations of 1NM-PP1 (0, 10 or 50 μM). mRNA transcripts of UPR genes were measured by RT-qPCR of unspliced Xbp1 (Xbp1u), spliced Xbp1 (Xbp1s), Chop, Gadd34, and Atf4.

CC(C)(C)n1nc(Cc2cccc3ccccc23)c2c(N)ncnc21 [1NM-PP1]
mRNA transcripts of UPR genes Xbp1u, CHOP, Gadd34 and Atf4 (RT-qPCR): increased at higher concentrations
